Experimental data published in PubChem BioAssay (NCI).
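Protocol summary: plate cells (96-well), add compound at 5 concentrations, incubate 48 h, interpolate endpoints linearly. GI50 = concentration required for 50% inhibition of growth. TGI marks complete inhibition of growth.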

Assays:
Test in all cases: DTP human tumour cell line panel, 48 h
MALME-3M melanoma = test system: MALME-3M melanoma
HCC-2998 colon = test system: HCC-2998 colon
A549 NSCLC = test system: A549 NSCLC
CAKI-1 renal = test system: CAKI-1 renal
RXF 393 renal = test system: RXF 393 renal
MDA-MB-231 breast = test system: MDA-MB-231 breast
786-0 renal = test system: 786-0 renal
MDA-MB-435 = test system: MDA-MB-435
SR leukemia = test system: SR leukemia
SF-295 CNS = test system: SF-295 CNS

Row | Structure (SMILES) | TGI (MALME-3M melanoma) [µM] | TGI (HCC-2998 colon) [µM] | TGI (A549 NSCLC) [µM] | TGI (CAKI-1 renal) [µM] | TGI (RXF 393 renal) [µM] | TGI (MDA-MB-231 breast) [µM] | TGI (786-0 renal) [µM] | TGI (MDA-MB-435) [µM] | TGI (SR leukemia) [µM] | TGI (SF-295 CNS) [µM] | GI50 (MALME-3M melanoma) [µM] | GI50 (HCC-2998 colon) [µM] | GI50 (A549 NSCLC) [µM] | GI50 (CAKI-1 renal) [µM] | GI50 (RXF 393 renal) [µM] | GI50 (MDA-MB-231 breast) [µM] | GI50 (786-0 renal) [µM] | GI50 (MDA-MB-435) [µM] | GI50 (SR leukemia) [µM] | GI50 (SF-295 CNS) [µM]
1 | CC(C)=CC(O)C/C(C)=C/CC/C(C)=C/CCC1(C)C(CCCO)/C(=C(/C)C=O)CCC1(C)O (stereo not given) | > 100 | 68.2 | > 100 | > 100 | 90.6 | 74.1 | > 100 | > 100 | 83.3 | > 100 | – | – | – | – | – | – | – | – | – | –
2 | O=C1/C(=C/c2ccc([N+](=O)[O-])o2)Oc2ccccc21 | 3.78 | 3.94 | 12.3 | 2.17 | 3.24 | 3.58 | 4.12 | 4.01 | 1.13 | 13.8 | 1.86 | 1.98 | 3.23 | 0.758 | 1.61 | 1.54 | 2.06 | 1.79 | 0.219 | 3.43
3 | Cc1ccc(NSc2ccccc2[N+](=O)[O-])cc1 | 28.9 | 10.6 | 17.1 | 25.3 | 5.27 | 15.5 | 16.3 | 0.171 | 36 | 9.18 | 3.21 | 1.82 | 0.951 | 1.36 | 0.868 | 1.06 | 1.5 | 0.0678 | 0.113 | 0.889
4 | CCCCCCCCCCCCSC(=NC)NC | 3.97 | 3.03 | 4.76 | 4.8 | 4.15 | 4.15 | 3.51 | 3.3 | 5.32 | 3.86 | 2.04 | 1.6 | 2.12 | 1.92 | 1.89 | 2.02 | 1.88 | 1.74 | 1.37 | 1.91
5 | C=C(C)[C@@H]1CC[C@]2(C(=O)O)CC[C@]3(C)[C@H](CC[C@@H]4[C@@]5(C)C[C@@H](CC#Cc6ccc(Br)cc6)C(=O)C(C)(C)[C@@H]5CC[C@]43C)[C@@H]12 | 14.1 | > 100 | > 100 | > 100 | 21.8 | 14.8 | 22.2 | > 100 | > 100 | 81.1 | 3.48 | 36 | 2.8 | 15.6 | 5.5 | 3.67 | 5.27 | 4.94 | 9.33 | 12.6
6 | O[C@@H]1CCCN1Cc1cc2cc3c(cc2c2cc(OCc4ccccc4)ccc12)OCO3 | 5.44 | 3.76 | 14.8 | 12.6 | 3.85 | 5.59 | 3.69 | 4.29 | 7.08 | 4.23 | 2.37 | 1.85 | 3.69 | 3.42 | 1.53 | 2.18 | 1.89 | 2 | 2.63 | 1.95
